From the PolyMetriX glass transition set
± gives the standard deviation of the reports.

| Structure (SMILES) | glass transition temperature [°C] |
| --- | --- |
| *c1c(C)cc(-c2cc(C)c(N3C(=O)c4ccc(S(=O)(=O)c5ccc6c(c5)C(=O)N(*)C6=O)cc4C3=O)c(C)c2)cc1C (repeat unit) | 290.00 |
| *c1cc(Br)c(Oc2c(Br)cc(N3C(=O)c4ccc(Oc5ccc6c(c5)C(=O)N(*)C6=O)cc4C3=O)cc2Br)c(Br)c1 (repeat unit) | 283.00 |
| *OC(=O)C(C)NC(=O)CCCCCCC(=O)NC(C)C(=O)OC1COC2C(*)COC12 (repeat unit) | 57.00 |
| *C(=O)c1ccc2c(c1)C(=O)N(c1cccc(C#Cc3cccc(N4C(=O)c5ccc(*)cc5C4=O)c3)c1)C2=O (repeat unit) | 294.00 |
| *Oc1c(-c2ccccc2)cc(Cc2cc(-c3ccccc3)c(OC(=O)CCCCC(*)=O)c(-c3ccccc3)c2)cc1-c1ccccc1 (repeat unit) | 115.00 |
| *CC(*)(C)C(=O)OCCCCCOc1ccc(OC(=O)c2ccc(OC)cc2)cc1 (repeat unit) | 38.00 |
| *c1ccc(-c2nc3cc(Oc4ccc5nc(-c6ccccc6)c(-c6ccc(-n7c(=O)c8cc9c(=O)n(*)c(=O)c9cc8c7=O)cc6)nc5c4)ccc3nc2-c2ccccc2)cc1 (repeat unit) | 274.00 |
| *CC(*)OC(=O)c1ccncc1 (repeat unit) | 98.50 |
| *c1ccc(Oc2ccc(N3C(=O)c4ccc(Oc5cccc(Oc6ccc7c(c6)C(=O)N(*)C7=O)c5)cc4C3=O)cc2)cc1 (repeat unit) | 209.00 |
| *CC(*)P(=O)(c1ccccc1)c1ccccc1 (repeat unit) | 127.50 |
| *CC(*)CN (repeat unit) | 190.00 |
| *CCCCCCCCCCCC(=O)Oc1ccc(C(C)(C)c2ccc(C(C)(C)c3ccc(OC(=O)c4ccc5c(c4)C(=O)N(*)C5=O)cc3)cc2)cc1 (repeat unit) | 97.00 |
| *c1ccc(Oc2ccc(C(=O)c3cccc(C(=O)c4ccc(Oc5ccc(N6C(=O)c7ccc(Oc8ccc9c(c8)C(=O)N(*)C9=O)cc7C6=O)cc5)cc4)c3)cc2)cc1 (repeat unit) | 208.00 |
| *C(=O)c1cc2c(cc1Cl)C(=O)N(c1cccc(N3C(=O)c4cc(*)c(Cl)cc4C3=O)c1)C2=O (repeat unit) | 313.00 |
| *Oc1ccc(OC(=O)c2ccc(C(*)=O)cc2Sc2ccc3ccccc3c2)cc1 (repeat unit) | 148.00 |
| *c1cccc(P(C)(=O)c2cccc(N3C(=O)c4ccc(Oc5ccc(C(C)(C)c6ccc(Oc7ccc8c(c7)C(=O)N(*)C8=O)cc6)cc5)cc4C3=O)c2)c1 (repeat unit) | 228.00 |
| *Oc1ccc(C(C)(C)c2ccc(OC(=O)OC3C(C)(C)C(OC(*)=O)C3(C)C)cc2)cc1 (repeat unit) | 130.00 |
| *c1ccc(Sc2ccc(Sc3ccc(Sc4ccc(N5C(=O)c6ccc(-c7ccc8c(c7)C(=O)N(*)C8=O)cc6C5=O)cc4)cc3)cc2)cc1 (repeat unit) | 227.10 |
| *CC(*)C(=O)O (repeat unit) [Poly(acrylic acid)] | 105 ± 7.3 |
| *CCCCCC(=O)Oc1ccc(C2(c3ccc(OC(=O)c4ccc5c(c4)C(=O)N(*)C5=O)cc3)CCCCC2)cc1 (repeat unit) | 122.00 |
| *CC(*)(C)C(=O)OCc1ccc(OCCOCCOCC)c(OCCOCCOCC)c1 (repeat unit) | -33.00 |
| *c1ccc(Oc2ccc(-c3cc(-c4ccccc4)c4cc5c(-c6ccccc6)cc(*)nc5cc4n3)cc2)cc1 (repeat unit) | 380.50 |

| Structure (SMILES) | glass transition temperature [°C] |
| --- | --- |
| *CC(O)COC(=O)CCCCC(=O)OCC(O)COc1ccc(C(C)(C)c2ccc(O*)cc2)cc1 (repeat unit) | 34.00 |
| *C(F)(F)C(*)(F)OC(F)(F)C(F)(F)F (repeat unit) | 29.00 |
| *Oc1ccc(C(*)=O)cc1CCCCC (repeat unit) | 50.00 |
| *Nc1ccc(NC(=O)c2ccc(NC(=O)CCCCCCCCCCCCC(=O)Nc3ccc(C(*)=O)cc3)cc2)cc1C(=O)OCCCCCCCCCCCCCC (repeat unit) | 204.50 |
| *O[Si](*)(C)OCCCCCCCCCCCOc1ccc(C2COC(c3ccc(OC)cc3)OC2)cc1 (repeat unit) | 44.00 |
| *CCCP(CCCCCCCC)CCCNC(=O)CCCCC(=O)N* (repeat unit) | 12.00 |
| *Oc1ccc(C(C)(CCC)c2ccc(OC(*)=O)cc2)cc1 (repeat unit) [Poly[2,2-pentane bis(4-phenyl)carbonate]] | 137 ± 0.6 |
| *C(=O)Nc1ccc(Oc2cccc(NC(=O)c3ccc4c(c3)C(=O)N(c3ccc(Oc5ccc(N6C(=O)c7ccc(*)cc7C6=O)cc5)cc3)C4=O)c2)cc1 (repeat unit) | 236.00 |
| *Oc1ccc(C(c2ccc(Oc3ccc(C(=O)c4ccc(C(c5ccc(C(=O)c6ccc(*)cc6)cc5)(C(F)(F)F)C(F)(F)F)cc4)cc3)cc2)(C(F)(F)F)C(F)(F)F)cc1 (repeat unit) | 185.00 |
| *c1cccc(N2C(=O)c3ccc(Oc4ccc(Sc5ccc(Oc6ccc7c(c6)C(=O)N(*)C7=O)cc5)cc4)cc3C2=O)c1 (repeat unit) | 209.00 |
| *c1ccc(-c2ccc(-c3ccc([Si](CCCC)(CCCC)[Si](*)(CCCC)CCCC)s3)s2)s1 (repeat unit) | -5.00 |
| *c1ccc(Oc2ccc(-n3nc(-c4ccccc4)cc3-c3cccc(-c4cc(-c5ccccc5)nn4*)c3)cc2)cc1 (repeat unit) | 232.00 |
| *Oc1ccc(NC(=O)c2ccc(C(=O)Nc3ccc(Oc4ccc(C5(c6ccc(*)cc6)C6CC7CC(C6)CC5C7)cc4)cc3)cc2)cc1 (repeat unit) | 264.00 |
| *CC(*)c1ccccc1COCCCCCCCC (repeat unit) | 13.00 |
| *CCCCCCNC(=O)CC(C)(C)c1ccc(C(C)(C)CC(=O)N*)cc1 (repeat unit) | 91.00 |
| *Oc1cccc(NC(=O)c2ccc(C(=O)Nc3ccc(*)cc3)cc2)c1 (repeat unit) | 280.00 |
| *CCSCc1ccc(Cc2ccc(CSCCOC(=O)CCSCc3ccc(Cc4ccc(CSCCC(=O)O*)cc4)cc3)cc2)cc1 (repeat unit) | 12.00 |
| *c1ccc(-c2ccc(N(*)c3ccc(C)cc3)cc2)cc1 (repeat unit) | 85.00 |
| *C1C(*)C2CC1C(C(=O)OCc1ccccc1)C2C(=O)OCc1ccccc1 (repeat unit) | 277.00 |
| *CC(*)(C)C(=O)OCCCCCCN(C)c1ccc(/N=N/c2ccc(S(C)(=O)=O)cc2)cc1 (repeat unit) | 100.00 |
| *c1ccc(-c2sc(-c3ccc(-c4cc(SCCCCCCCC)c(*)s4)cc3)cc2SCCCCCCCC)cc1 (repeat unit) | -38.80 |
| *C1C(=O)N(c2ccccc2C(=O)OC)C(=O)C1* (repeat unit) | 259.00 |

| Structure (SMILES) | glass transition temperature [°C] |
| --- | --- |
| *Nc1ccc(C(C)(C)c2ccc(NC(=O)c3cccc(C(*)=O)c3)cc2)cc1 (repeat unit) | 279.00 |
| */C(=C/c1cc(OC)c(/C=C(/c2ccc(*)cc2)c2ccc(C(F)(F)F)cc2)cc1OC)c1ccc(C(F)(F)F)cc1 (repeat unit) | 208.00 |
| *c1ccc(C2(c3ccc(-c4cc(-c5ccccc5)c5cc(C6(c7ccc8nc(*)cc(-c9ccccc9)c8c7)c7ccccc7C(=O)c7ccccc76)ccc5n4)cc3)c3ccccc3-c3ccccc32)cc1 (repeat unit) | 405.00 |
| *CCCCCCOc1ccc(OC(=O)c2ccc(C(=O)Oc3ccc(O*)cc3)cc2)cc1 (repeat unit) | 53.00 |
| *c1ccc(-c2nc3cc(-c4ccc5nc(-c6ccccc6)c(-c6ccc(N7C(=O)C8OC9C(=O)N(*)C(=O)C9C8C7=O)cc6)nc5c4)ccc3nc2-c2ccccc2)cc1 (repeat unit) | 230.00 |
| *c1ccc(-c2cc(C(C)(C)C)c(Oc3ccc(N4C(=O)c5ccc(Oc6ccc7c(c6)C(=O)N(*)C7=O)cc5C4=O)cc3C(F)(F)F)c(C(C)(C)C)c2)cc1 (repeat unit) | 353.00 |
| *N=P(Cl)(N=P(/N=S(/*)Oc1cccc(-c2ccccc2)c1)(Oc1cccc(-c2ccccc2)c1)Oc1cccc(-c2ccccc2)c1)Oc1cccc(-c2ccccc2)c1 (repeat unit) | 32.00 |
| *c1ccc(Oc2cccc(N3C(=O)c4ccc(-c5ccc6c(c5)C(=O)N(*)C6=O)cc4C3=O)c2)cc1 (repeat unit) | 259.00 |
| *CC(*)c1ccccc1C(=O)NC (repeat unit) | 189.00 |
| *c1ccc(-n2ccc(-c3cccc(-c4ccn(*)n4)c3)n2)cc1 (repeat unit) | 75.00 |
| *c1ccc(C(C#N)(C(=O)O)C(*)(C#N)C(=O)O)cc1 (repeat unit) | 108.00 |
| *Oc1ccc(Oc2ccc(C(=O)Nc3ccc(Cc4ccc(NC(=O)c5ccc(*)cc5)cc4)cc3)cc2)cc1-c1ccccc1 (repeat unit) | 218.00 |
| *c1ccc(Oc2ccc(-c3cnc4cc5ncc(*)nc5cc4n3)cc2)cc1 (repeat unit) | 353.00 |
| *Oc1ccc(P(C)(=O)c2ccc(Oc3ccc(C(C)(C)c4ccc(*)cc4)cc3)cc2)cc1 (repeat unit) | 192.00 |
| *c1ccc(*)[nH]1 (repeat unit) [Poly(pyrrole)] | 86.42 ± 23 |
| *c1ccc(C(=O)c2cccc(-n3c(=O)c4cc5c(=O)n(*)c(=O)c5cc4c3=O)c2)cc1 (repeat unit) | 340.00 ± 11 |
| *CC(*)c1ccc(OC(C)=O)c(OC)c1 (repeat unit) | 115.00 |
| *CCCCCCOc1ccc(/C=C/c2ccc(O*)c3ccccc23)cc1 (repeat unit) | 78.00 |
| *CC(F)(F)C(F)(F)COC(=O)NCCCCCCNC(=O)O* (repeat unit) | 9.00 |
| */C=C/C1CC(*)C(C(=O)OCCNC(C)(C)C)C1 (repeat unit) | 29.00 |
| *=NP(=NP(=NC(=*)Oc1ccc(C(C)(C)C)cc1)(Oc1ccc(C(C)(C)C)cc1)Oc1ccc(C(C)(C)C)cc1)(Oc1ccc(C(C)(C)C)cc1)Oc1ccc(C(C)(C)C)cc1 (repeat unit) | 74.00 |
| *CC(*)(C#N)C(=O)OCC(C)C (repeat unit) | 51.00 |
